In patent publication US20260159486A1, “BENZO[H]QUINAZOLINE-4-AMINE DERIVATIVES FOR THE TREATMENT OF CANCER” (Redona Therapeutics, Inc., priority 2021, published 2026):

Experiments:
recombinant human CLK3 = molecular target: T1, recombinant human CLK3 (Homo sapiens, UniProt P49761); assay: CLK3 kinase assay (LANCE Ultra); assay type: biochemical; conditions: CLK3 0.5 nM, ATP 300 μM, 3 hours at 30° C.
T1 construct: purchased Thermo Fisher Scientific PV3826
In short: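 Recombinant human CLK3 (0.5 nM) with ULight-CREBtide (50 nM) and 300 μM ATP, 3 h at 30 °C in kinase buffer; EDTA stop, then Eu-anti-phospho-CREB antibody (2 nM, 1 h RT), TR-FRET read at 665/620 nm. Inhibition normalized to DMSO and no-ATP wells; IC50 from 4-parameter fit, ten 1:3 concentrations in duplicate.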

MDA-MB-231 cells = assay: MDA-MB-231 proliferation assay; assay type: cell-based; conditions: Homo sapiens, MDA-MB-231, 72 h, YO-PRO-1 Iodide readout
In short: (§1)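 Cells seeded at 750 per well, treated next day for 72 h at 37 °C with 0.5% final DMSO. Cell number read by YO-PRO-1 fluorescence after lysis, normalized to DMSO (100%) and time-zero cells (0%). GI50 from 4-parameter logistic fit, maximum constrained to 100%.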

CAL-51 cells = assay: CAL-51 proliferation assay; assay type: cell-based; conditions: Homo sapiens, CAL-51, 72 h, YO-PRO-1 Iodide readout
In short: as §1

T1 sequence (P49761 whole entry): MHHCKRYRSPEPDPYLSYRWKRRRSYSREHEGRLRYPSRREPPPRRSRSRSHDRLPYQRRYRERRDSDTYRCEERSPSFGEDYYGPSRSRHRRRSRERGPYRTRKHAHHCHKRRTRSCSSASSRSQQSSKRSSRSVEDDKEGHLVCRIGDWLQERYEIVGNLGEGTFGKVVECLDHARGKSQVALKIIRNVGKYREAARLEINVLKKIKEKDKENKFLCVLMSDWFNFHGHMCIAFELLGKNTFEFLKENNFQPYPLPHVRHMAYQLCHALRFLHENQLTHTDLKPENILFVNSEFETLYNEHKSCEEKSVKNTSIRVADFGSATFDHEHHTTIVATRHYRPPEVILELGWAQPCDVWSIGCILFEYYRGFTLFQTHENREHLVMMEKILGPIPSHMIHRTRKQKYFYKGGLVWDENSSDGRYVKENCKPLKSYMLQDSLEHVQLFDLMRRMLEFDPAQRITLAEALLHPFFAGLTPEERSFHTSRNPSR

| Structure (SMILES) | IC50 (recombinant human CLK3) [nM] | GI50 (MDA-MB-231 cells) [nM] | GI50 (CAL-51 cells) [nM] |
| --- | --- | --- | --- |
| CN(CCC#N)c1cccc2c1CC(C)(C)c1c(N)ncnc1-2 [Example 109, 3-[(4-amino-5,5-dimethyl-6H-benzo[h]quinazolin-7-yl)-methyl-amino]propanenitrile] | 30 to 100 | 100 to 2000 | < 100 |
| COCCCc1c(OC)ccc2c1CC(C)(C)c1c(N)ncnc1-2 [Example 61, 8-methoxy-7-(3-methoxypropyl)-5,5-dimethyl-6H-benzo[h]quinazolin-4-amine] | 101 to 1000 | 100 to 2000 | 100 to 2000 |
| CN(CCS(C)(=O)=O)c1c(O[C@H]2CC[C@@H](N)CC2)ccc2c1CC(C)(C)c1c(N)ncnc1-2 [Example 32, 8-(cis-4-aminocyclohexoxy)-N7,5,5-trimethyl-N7-(2-methylsulfonylethyl)-6H-benzo[h]quinazoline-4,7-diamine] | < 30 | > 2000 | > 2000 |
| CC1(C)Cc2c(ccc(O[C@H]3CC[C@@H](N)CC3)c2NC[C@@H]2CNC(=O)O2)-c2ncnc(N)c21 [Example 128, (5R)-5-[[[4-amino-8-(cis-4-aminocyclohexoxy)-5,5-dimethyl-6H-benzo[h]quinazolin-7-yl]amino]methyl]oxazolidin-2-one] | < 30 | > 2000 | > 2000 |
| CNc1c(O[C@H]2CC[C@H](N)CC2)ccc2c1CC(C)(C)c1c(N)ncnc1-2 [Example 68, 8-(trans-4-aminocyclohexoxy)-N7,5,5-trimethyl-6H-benzo[h]quinazoline-4,7-diamine] | 30 to 100 | 100 to 2000 | < 100 |
| CC1(C)Cc2c(ccc(O[C@H]3CC[C@@H](N4CCOCC4)CC3)c2NC[C@@H]2CNC(=O)O2)-c2ncnc(N)c21 [Example 130, (5R)-5-[[[4-amino-5,5-dimethyl-8-(cis-4-morpholinocyclohexoxy)-6H-benzo[h]quinazolin-7-yl]amino]methyl]oxazolidin-2-one] | < 30 | > 2000 | 100 to 2000 |
| CC1(C)Cc2c(ccc(Br)c2N(CCC#N)C[C@@H]2CNC(=O)O2)-c2ncnc(N)c21 [Example 132, 3-[(4-amino-8-bromo-5,5-dimethyl-6H-benzo[h]quinazolin-7-yl)-[[(5S)-2-oxooxazolidin-5-yl]methyl]amino]propanenitrile] | < 30 | 100 to 2000 | 100 to 2000 |
| CC1(C)C(=O)c2c(ccc(O[C@H]3CC[C@H](N)CC3)c2N)-c2ncnc(N)c21 [Example 34, 4,7-diamino-8-(trans-4-aminocyclohexoxy)-5,5-dimethyl-benzo[h]quinazolin-6-one] | 101 to 1000 | 100 to 2000 | 100 to 2000 |
| CN(CCC#N)c1c(O[C@H]2CC[C@H](N3CCOCC3)CC2)ccc2c1CC(C)(C)c1c(N)ncnc1-2 [Example 52, 3-[[4-amino-5,5-dimethyl-8-(trans-4-morpholinocyclohexoxy)-6H-benzo[h]quinazolin-7-yl]-methyl-amino]propanenitrile] | < 30 | < 100 | < 100 |
| COc1ccc2c(c1N(CCC#N)Cc1nnc(C(C)F)o1)CC(C)(C)c1c(N)ncnc1-2 (stereo not drawn) [Example 124, 3-[(4-amino-8-methoxy-5,5-dimethyl-6H-benzo[h]quinazolin-7-yl)-[[5-(1-fluoroethyl)-1,3,4-oxadiazol-2-yl]methyl]amino]propanenitrile] | 101 to 1000 | 100 to 2000 | 100 to 2000 |
| CC1(C)Cc2c(ccc(O[C@H]3CC[C@H](N)CC3)c2NCCO)-c2ncnc(N)c21 [Example 14, 2-[[4-amino-8-(trans-4-aminocyclohexoxy)-5,5-dimethyl-6H-benzo[h]quinazolin-7-yl]amino]ethanol] | < 30 | 100 to 2000 | 100 to 2000 |
| CC1(C)Cc2c(ccc(O[C@H]3CC[C@H](N)CC3)c2N2CCCCC2)-c2ncnc(N)c21 [Example 9, 8-(trans-4-aminocyclohexoxy)-5,5-dimethyl-7-(1-piperidyl)-6H-benzo[h]quinazolin-4-amine] | < 30 | 100 to 2000 | < 100 |

Now from value to compound, other results behind:

| IC50 (recombinant human CLK3) [nM] | GI50 (MDA-MB-231 cells) [nM] | Structure (SMILES) | GI50 (CAL-51 cells) [nM] |
| --- | --- | --- | --- |
| < 30 | > 2000 | CN(c1c(O[C@H]2CC[C@H](N)CC2)ccc2c1CC(C)(C)c1c(N)ncnc1-2)S(=O)(=O)CCC(N)=O [Example 86, 3-[[4-amino-8-(trans-4-aminocyclohexoxy)-5,5-dimethyl-6H-benzo[h]quinazolin-7-yl]-methyl-sulfamoyl]propanamide] | 100 to 2000 |
| 101 to 1000 | 100 to 2000 | CN(Cc1cocn1)c1c(O[C@H]2CC[C@H](N)CC2)ccc2c1CC(C)(C)c1c(N)ncnc1-2 [Example 105, 8-(trans-4-aminocyclohexoxy)-N7,5,5-trimethyl-N7-(oxazol-4-ylmethyl)-6H-benzo[h]quinazoline-4,7-diamine] | 100 to 2000 |
| 30 to 100 | 100 to 2000 | COc1ccc2c(c1N)CC(C)(C)c1c(N)ncnc1-2 [Example 2, 8-methoxy-5,5-dimethyl-6H-benzo[h]quinazoline-4,7-diamine] | 100 to 2000 |
| 101 to 1000 | 100 to 2000 | CCCCN(C)c1c(O[C@H]2CC[C@H](N)CC2)ccc2c1CC(C)(C)c1c(N)ncnc1-2 [Example 100, 8-(trans-4-aminocyclohexoxy)-N7-butyl-N7,5,5-trimethyl-6H-benzo[h]quinazoline-4,7-diamine] | 100 to 2000 |
| 30 to 100 | 100 to 2000 | CC(C)CN(C)c1c(O[C@H]2CC[C@H](N)CC2)ccc2c1CC(C)(C)c1c(N)ncnc1-2 [Example 106, 8-(trans-4-aminocyclohexoxy)-N7-isobutyl-N7,5,5-trimethyl-6H-benzo[h]quinazoline-4,7-diamine] | 100 to 2000 |
| 101 to 1000 | 100 to 2000 | CN(CCC(C)(C)O)c1c(O[C@H]2CC[C@H](N)CC2)ccc2c1CC(C)(C)c1c(N)ncnc1-2 [Example 111, 4-[[4-amino-8-(trans-4-aminocyclohexoxy)-5,5-dimethyl-6H-benzo[h]quinazolin-7-yl]-methyl-amino]-2-methyl-butan-2-ol] | 100 to 2000 |
| 101 to 1000 | 100 to 2000 | COc1ccc2c(c1N1CC(CO)C1)CC(C)(C)c1c(N)ncnc1-2 [Example 28, [1-(4-amino-8-methoxy-5,5-dimethyl-6H-benzo[h]quinazolin-7-yl)azetidin-3-yl]methanol] | 100 to 2000 |
| < 30 | < 100 | COc1ccc2c(c1N(C)CCC#N)CC(C)(C)c1c(N)ncnc1-2 [Example 95, 3-[(4-amino-8-methoxy-5,5-dimethyl-6H-benzo[h]quinazolin-7-yl)-methyl-amino]propanenitrile] | < 100 |
| < 30 | > 2000 | CN(c1c(O[C@H]2CC[C@H](N)CC2)ccc2c1CC(C)(C)c1c(N)ncnc1-2)S(=O)(=O)CCC(=O)O [Example 69, 3-[[4-amino-8-(trans-4-aminocyclohexoxy)-5,5-dimethyl-6H-benzo[h]quinazolin-7-yl]-methyl-sulfamoyl]propanoic acid] | > 2000 |
| < 30 | 100 to 2000 | CN(CCC#N)c1c(Br)ccc2c1CC(C)(C)c1c(N)ncnc1-2 [Example 115, 3-[(4-amino-8-bromo-5,5-dimethyl-6H-benzo[h]quinazolin-7-yl)-methyl-amino]propanenitrile] | < 100 |
| 30 to 100 | 100 to 2000 | CC1(C)Cc2c(ccc(O[C@H]3CC[C@H](N)CC3)c2N2CCOCC2)-c2ncnc(N)c21 [Example 10, 8-(trans-4-aminocyclohexoxy)-5,5-dimethyl-7-morpholino-6H-benzo[h]quinazolin-4-amine] | 100 to 2000 |
| < 30 | 100 to 2000 | CC1(C)Cc2c(ccc(O[C@H]3CC[C@H](N)CC3)c2SCCC#N)-c2ncnc(N)c21 [Example 108, 3-[[4-amino-8-(trans-4-aminocyclohexoxy)-5,5-dimethyl-6H-benzo[h]quinazolin-7-yl]sulfanyl]propanenitrile] | < 100 |
| < 30 | > 2000 | CC1(C)Cc2c(ccc(O[C@H]3CC[C@H](N)CC3)c2N(CCO)CCO)-c2ncnc(N)c21 [Example 11, 2-[[4-amino-8-(trans-4-aminocyclohexoxy)-5,5-dimethyl-6H-benzo[h]quinazolin-7-yl]-(2-hydroxyethyl)amino]ethanol] | 100 to 2000 |
| 30 to 100 | > 2000 | CN(CCC(=O)O)c1c(O[C@H]2CC[C@H](N)CC2)ccc2c1CC(C)(C)c1c(N)ncnc1-2 [Example 85, 3-[[4-amino-8-(trans-4-aminocyclohexoxy)-5,5-dimethyl-6H-benzo[h]quinazolin-7-yl]-methyl-amino]propanoic acid] | > 2000 |
| 101 to 1000 | > 2000 | CN(CCNS(C)(=O)=O)c1c(O[C@H]2CC[C@H](N)CC2)ccc2c1CC(C)(C)c1c(N)ncnc1-2 [Example 39, N-[2-[[4-amino-8-(trans-4-aminocyclohexoxy)-5,5-dimethyl-6H-benzo[h]quinazolin-7-yl]-methyl-amino]ethyl]methanesulfonamide] | 100 to 2000 |
| < 30 | 100 to 2000 | CN(CCO)c1c(O[C@H]2CC[C@H](N)CC2)ccc2c1CC1(CCCC1)c1c(N)ncnc1-2 [Example 59, 2-[[4-amino-8-(4-trans-aminocyclohexoxy)spiro[6H-benzo[h]quinazoline-5,1′-cyclopentane]-7-yl]-methyl-amino]ethanol] | < 100 |
